Test: Human HepG2 cell viability assay in 384 well format
Type: toxicity, cell-based
Design: dose 125 nL, time 70.5 hour; cytotoxicity at 70.5 h: concentration not given beside the values
Conditions: HepG2 cells, read-out: Inhibition

| Compound | cytotoxicity at 70.5 h |
| --- | --- |
| CC(C)C(=O)NCc1ccccc1NS(=O)(=O)c1ccccc1 | -3.22% |
| COc1ccc(CN2C[C@@H](OCc3ccccn3)[C@H]3COC[C@H]32)cc1 | -23.2% |
| CC(C)OCCS(=O)(=O)NC1CCN(C2CCCC2)C1 (stereo unspecified) | 8.61% |
| CN1CC(=O)N(c2cccc(F)c2)CC12CCN(Cc1cccnc1)C2 (stereo unspecified) | 3.06% |
| COc1ncccc1CNC(=O)c1csc(Br)c1 | -8.18% |
| O=C(c1cnccn1)N1CCCC2(CCN(Cc3ccc(F)cc3)C2)C1 (stereo unspecified) | -4.76% |
| Cc1nc(CNC(C)c2ccc(S(=O)(=O)N(C)C)cc2)no1 (stereo unspecified) | -2.76% |
| CNC(=O)c1ccc(Cn2ccnc2S(C)(=O)=O)cc1 | -0.546% |
| CC(C)(C)OC(=O)NCC1CCN(C(=O)c2ccccc2O)CC1 | -7.62% |
| Cc1c[nH]nc1C1CCN(C(=O)Cn2cccn2)C1 (stereo unspecified) | -7.3% |
| CC(=O)NCc1nnc2n1CCN(c1ncnc3c1CCC3)CC2 | 25.3% |
| COc1ccc(C(=O)N2C[C@@H](O)[C@H](NCc3cnc(C)cn3)C2)cc1 | 22.1% |
| Cc1noc(C)c1CC(=O)N1CCC(Nc2cccnn2)CC1 | 20.6% |
| Cc1nc(-c2nc(C(=O)NC3CC3)c3ccccn23)cn1C(C)C | -2.95% |
| Cc1ccc(C2COCCN2C(=O)c2ccc(N(C)C)cc2)o1 (stereo unspecified) | -8.97% |
| COc1cc(CN(C)[C@@H]2COC[C@H]2c2ccc(F)cc2)cc(OC)c1 | 0.803% |
| c1cnc(N2CCOC3(CCN(CC4CCOC4)CC3)C2)nc1 (stereo unspecified) | 2.18% |
| CS(=O)(=O)c1ccc(C(O)CN2CCC(c3ccn[nH]3)CC2)cc1 (stereo unspecified) | -17.4% |
| CNC(=O)CN1CCO[C@H]2CN(C(=O)C3CC3)C[C@H]21 | -2.66% |
| COc1cc(C(=O)Nc2cn[nH]c2)ccc1C | -7% |
| COc1ccc(N2CCN(C(=O)C(C)n3cc(Br)cn3)CC2)cc1 (stereo unspecified) | -1.02% |

| Compound | cytotoxicity at 70.5 h |
| --- | --- |
| CC(C)c1noc(C(C)N2CCN(Cc3noc(C4CC4)n3)CC2)n1 (stereo unspecified) | -10.9% |
| CCCc1csc(-c2ccc(S(C)(=O)=O)cc2)n1 | -1.59% |
| O=C(NCCNc1ncccn1)N1CCN(Cc2cccnc2)CC1 | 21.2% |
| Cc1ccsc1C(CNC(=O)c1cc(=O)c2ccccc2[nH]1)N(C)C (stereo unspecified) | -9.06% |
| CC(C1CC1)N(C)C(=O)CCn1cccn1 (stereo unspecified) | 8.62% |
| c1cncc(OCCCNC2COc3ccccc3C2)c1 (stereo unspecified) | -3.91% |
| CCn1c(C)nnc1SCCNc1cc(COC)ncn1 | -22.7% |
| OCc1csc(N2CCCC(CO)(Cc3cccc(Cl)c3)C2)n1 (stereo unspecified) | 12.4% |
| CCOc1ccc(OCc2nccc(-c3cc(C(=O)O)ccn3)n2)cc1 | 16% |
| O=C(NC1CCCCC1)c1c(F)cccc1F | 4.08% |
| CC(C)C(C)N(C)C(=O)COc1ccccc1C#N (stereo unspecified) | 1.38% |
| Cc1nn(C)c(C)c1NC(=O)CN1CCN(c2nccs2)C(C)C1 (stereo unspecified) | -6.35% |
| O=C(NCC1(O)CCOC1)NCC1(c2ccccc2Cl)CC1 (stereo unspecified) | -2.47% |
| NC(=O)C1CCCN1Cc1ccccc1NC(=O)Cc1cccs1 (stereo unspecified) | 13% |
| CN(Cc1n[nH]c2c1CCC2)c1nc(C2CCCC2)nc2c1CNC2 | -8.94% |
| CCO[C@H]1CN(C)C[C@@H]1NC(=O)c1cc(C)nc2ccc(C)cc12 | -6.33% |
| COc1ccc(-n2c(SCC(=O)O)nnc2-c2cn[nH]c2)cc1 | 15.3% |
| CC(=O)N1CCC(c2ccnc(Nc3cncnc3)n2)C1 (stereo unspecified) | -32.6% |
| O=C1[C@H]2CN(C3CCOCC3)C[C@H]2CN1Cc1ccncc1 | -8.99% |
| COc1cccc(CNCc2nc3ccccc3c(=O)[nH]2)c1 | 1.76% |
| CC(C)Nc1nc2c(cc1C(=O)NCC1CC1)CCN(C)CC2 | -8.36% |

| Compound | cytotoxicity at 70.5 h |
| --- | --- |
| CCN(c1ccc(C(=O)N(Cc2cnn(C)c2)C(C)C)cn1)C(C)C | -24.7% |
| O=C(O)c1c(NC2CCC2)ncc2c1CCN(C1CCOC1)C2 (stereo unspecified) | -6.13% |
| CC(C)NC(=O)NC(C)c1nc(-c2ccccc2)cs1 (stereo unspecified) | -6.77% |
| CCS(=O)(=O)N1CCC2(CCN(CC(=O)N(C)C)C2=O)CC1 | -1.33% |
| COCC1CN(Cc2ccoc2)Cc2nn(C)cc21 (stereo unspecified) | -2.22% |
| CCN1CCC2(CC1)CC(NCc1cccs1)c1ccccc1O2 (stereo unspecified) | -5.71% |
| COCCN1CCC2(CC1)CC(NC(=O)C(C)C)c1ccccc1O2 (stereo unspecified) | -4.05% |
| CC(C)CCC1=NC2(CCN(C(=O)CN3CCCC3=O)CC2)C(=O)N1 | -5.52% |
| CC(C)C(=O)NCCC(=O)N1CCN(c2ccccn2)CC1 | -4.63% |
| Cc1noc(C)c1CN1CCCC2(C1)CN(c1nccs1)CCO2 (stereo unspecified) | -2.38% |
| Cn1cccc1CN(C(=O)Cc1cccs1)C1CC1 | -2.78% |
| Cc1cc(C)n(C2CN(CC(=O)N3CCOCC3)C2)n1 | 4.72% |
| CC(Nc1ccc(F)cc1)c1nnnn1-c1ccccc1 (stereo unspecified) | -109% |
| CCN(Cc1nc2c(cnn2C)c(=O)[nH]1)c1cc(C)cc(C)c1 | 9.75% |
| Cc1cnn(CCC(=O)N2C[C@H]3CC[C@@H]2CN(CC(=O)N(C)C)C3)c1 | -3.83% |
| N[C@H]1CN(C(=O)Cc2ccc(CO)cc2)C[C@@H]1C1CC1 | 34.3% |
| O=C(NCCN1CCOCC1)c1ccn(-c2ccc3ccccn23)n1 | -1.69% |
| O=C(CN1CCOC(Cn2cccn2)C1)NCc1ccccn1 (stereo unspecified) | -9.46% |
| NCC1Cc2cc(-c3cncc(C(=O)N4CCCCC4)n3)cc(F)c2O1 (stereo unspecified) | -4.24% |
| NC(=O)c1cccc(CS(=O)(=O)CC(O)Cn2cccn2)c1 (stereo unspecified) | -4.59% |
| CCCc1noc(C[S+]([O-])CC(=O)NCc2ccccc2)n1 (stereo unspecified) | 15.8% |

| Compound | cytotoxicity at 70.5 h |
| --- | --- |
| Cc1nc(NC(C)C)nc2c1CN(Cc1nccn1C)CC2 | 0.21% |
| CCc1n[nH]c(=O)c(C(=O)N2CCOC3(CCCC3)C2)c1CC | -2.62% |
| CNC(=O)C1CN(c2ccc(F)cc2)CCN1 (stereo unspecified) | -1.89% |
| COC(=O)CCNC(=O)c1cnc(Cc2ccc(F)cc2)s1 | -2.52% |
| Cn1cc(CN2CC[C@@H]3[C@H]2CCC(=O)N3c2ccccc2)cn1 | -8.65% |
| CCCNC(=O)C1CCN(Cc2csc(C(C)C)n2)CC1 | 16.4% |
| N[C@H]1CC[C@@H](CN2CCCn3nc(CNC(=O)C4CCC4)cc3C2)CC1 | -9.19% |
| OCc1ccncc1NCc1cnc(-c2ccccn2)s1 | 0.118% |
| O=C(Cc1ccc(F)cc1)N1CCn2cc(Cn3cccn3)nc2C1 | -1.99% |
| CCS(=O)(=O)Cc1csc(-c2ccc(S(C)(=O)=O)cc2)n1 | -6.86% |
| CC(C)N1CCC2(C=C(C(=O)N(C)C)c3ccccc32)CC1 | -16.2% |
| Clc1snnc1CN(Cc1cccs1)C1CC1 | -5.36% |
| COCC1CN(C(=O)Nc2cc(C(F)(F)F)ccc2F)CCO1 (stereo unspecified) | -5.23% |
| CS(=O)(=O)N1CCCCC1c1ccc(Nc2cnccn2)nc1 (stereo unspecified) | -7.53% |
| CC(=O)c1cccc(NS(=O)(=O)c2cc(C)c(C(=O)O)s2)c1 | -4.79% |
| O=C1NCC2(CCCN(C(=O)c3csc(-c4cccs4)n3)C2)O1 (stereo unspecified) | -14.3% |
| CN(C)c1nc2c(c(N(C)C)n1)CCN(C(=O)CN1C[C@@H]3CC[C@H]1C3)C2 | -6.59% |
| COc1cc(CN[C@@H]2COC[C@H]2Cc2cc(C)no2)cc(OC)c1 | -6.2% |

— ChEMBL document CHEMBL3507680, “University of Dundee, Gates Library screen for HepG2 cell viability”
